Measurements: paper PMC6337391 (Molecules, 2019)

How the values were obtained:
[1] = ABTS•+ decolorization assay
Procedure, shortened: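 Compounds (10 mM DMSO stocks, diluted) added to ABTS•+ radical generated by potassium persulfate oxidation of ABTS. Decolorization followed as absorbance at room temperature, with Trolox as standard.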

Aβ40 = target: T1, Aβ40 (Homo sapiens, UniProt P05067); experiment: Circular dichroism study of Aβ40 aggregation; conditions: 50 µM compound, 50 µM Aβ40 (1:1), PB pH 7.33, 33 °C, 40 days
T1 construct: Amyloid peptide Aβ40 was purchased from AnaSpec Co; purchased AnaSpec Co. (Fremont, CA, USA)
T1 sequence (P05067 672-711 limits assumed): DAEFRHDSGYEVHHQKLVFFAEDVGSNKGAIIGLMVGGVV
Text: The pathogenesis of Alzheimer’s disease (AD) is widely associated with the aggregation of β-amyloid peptide (Aβ) either to soluble oligomers or to higher-order polymeric insoluble fibrils. As a result, one of the main therapeutic strategies against AD targets the aggregation process of Aβ, and a great number of small molecules are being investigated for their potential to intervene in the assembly of Aβ and inhibit its neurotoxicity in vitro and in vivo [64]. Circular dichroism (CD) spectroscopy is commonly used to probe the secondary structure of polypeptides and to monitor conformational changes and interactions of polypeptides with small molecules. The typical aggregation process of Aβ produces characteristic CD spectra over time that reflect the conformational changes that occur as the random coil monomers are converted into β-sheet oligomers, and then gradually to larger β-sheet formations that finally produce amyloid fibrils. CD is, therefore, a valuable tool to monitor the aggregation process of Aβ and to study the effect of potential aggregation inhibitors. To further investigate the pleiotropic effects of chalcones against AD, selected compounds from our library, were subjected to CD studies in order to evaluate their potential to interfere with the aggregation process of Aβ40. […] The aggregation spectra of plain Aβ40 show at day 0 the typical random coil peak (negative maximum at 198 nm) the intensity of which gradually decreases as the peptide forms β–sheet structures (negative maximum at 222 nm, day 15) that further aggregate to higher order polymeric fibrils. The precipitation of the insoluble fibrils from solution eventually results in the loss of CD signal (days 30 and 40). […] In view of the above results, chalcone derivatives bearing a three-carbon chain linker, specifically c2, c3, and c4, were subsequently studied in order to assess the effect of further derivatization and the presence of the chalcone moiety in the structure. […] Overall, our CD study identified three new structures capable of interfering with the aggregation process of Aβ, out of which compounds c2 and c4 display additional protective actions against AD and add to the pleiotropic profile of the chalcone derivatives.
Preparation of Aβ stocks and solutions. Amyloid peptide Aβ40 was purchased from AnaSpec Co. (Fremont, CA, USA) (>95% pure). Aβ40 was gently dissolved without vortexing in Type 1 (Milli-Q) water to a final concentration of 100 μM. Solutions of Aβ in phosphate buffer (PB, 10 mM, pH 7.33) were prepared by adding equal volumes of PB to aliquots of the aqueous solution stock to achieve final concentration of 50 µM. The proper amount of the compounds c2, c3, c4, di, dii, and dvi were added to the Aβ solutions to achieve concentration of 50 μM. The secondary structural changes of Aβ were monitored for 40 days by CD. During this period, the amyloid peptide solutions were kept at an incubator at 33 °C under quiescent conditions.
Circular dichroism measurements. CD spectra were recorded on a JASCO J-715 spectropolarimeter (Jasco Co., Tokyo, Japan), at 33 °C in the range of 190–260 nm with a 1 mm path length quartz cuvette. Each spectrum was the average of three scans at a speed of 100 nm·min^−1 and a resolution of 0.5 nm. Three independent experiments were run for each condition and in each case solutions of plain Aβ were run as control (Figure 8). The analysis of the CD data was performed using the OriginPro 9 program.

[2] = Reducing activity with the stable radical DPPH
Procedure, shortened: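 DPPH (final 0.05 mM) in absolute ethanol mixed with an equal volume of compound at 0.05 or 0.1 mM, ethanol as control. Absorbance at 517 nm read at room temperature after 20 and 60 min, expressed as reducing activity RA%.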

Structure (SMILES)	ABTS•+ Inhb. % @ 100 μM [1]	effect on the aggregation process of Aβ40 (CD spectra) (Aβ40)	RA% 100 μM 20 min [2]	RA% 100 μM 60 min [2]
CC(=O)c1ccc(OCCCCCCCOc2ccc(C(C)=O)cc2)cc1 [dvi, 1,1′-((heptane-1,7-diylbis(oxy))bis-(4,1-phenylene)) diethanone]	No	did not significantly change the fibrillization course of Aβ40	–	–
O=C(/C=C/C=C/c1ccc([N+](=O)[O-])cc1)c1ccc(OCCCOc2ccc(C(=O)/C=C/C=C/c3ccc([N+](=O)[O-])cc3)cc2)cc1 [c11, (2E,2′E,4E,4′E)-1,1′-((propane-1,3-diylbis(oxy))bis(4,1-phenylene))bis(5-(4-nitrophenyl)penta-2,4-dien-1-one)]	No	–	No	no
O=C(/C=C/c1cccc2ccccc12)c1ccccc1O [b4, (E)-1-(2-hydroxyphenyl)-3-(naphthalen-1-yl) prop-2-en-1-one]	No	–	30%	20%
CC(=O)c1ccc(OCCOc2ccc(C(C)=O)cc2)cc1 [di, 1,1′-((ethane-1,2-diylbis(oxy))bis(4,1-phenylene))diethanone]	No	did not significantly change the fibrillization course of Aβ40	–	–
